The target of one assay is NTRK3 (human) (UniProt Q16288). As to the kind of experiment: Caliper, Mobility shift assay off-chip.
The next assay addresses TXK (human) (UniProt P42681). As to the kind of experiment: Caliper, Mobility shift assay off-chip.
For a further assay, the target named is PRKCI (human) (UniProt P41743). As to the kind of experiment: Caliper, Mobility shift assay off-chip.
The target of the next assay is ITK (human) (UniProt Q08881). As to the kind of experiment: Caliper, Mobility shift assay off-chip.
A further assay addresses RET (human) (UniProt P07949). As to the kind of experiment: Caliper, Mobility shift assay off-chip.
Assay [1] deals with RET (human), P07949 [Y791F]. As to the kind of experiment: Caliper, Mobility shift assay off-chip.
Another assay concerns the target PRKCQ (human) (UniProt Q04759). As to the kind of experiment: SelectScreen, TR FRET. For orientation: Time-resolved FRET reads energy transfer from a long-lived donor to a nearby acceptor.
Another assay has as its target BRAF (human) (UniProt P15056). As to the kind of experiment: SelectScreen, TR FRET.
The target of the next assay is MAP2K1 (human) (UniProt Q02750). As to the kind of experiment: SelectScreen, TR FRET.
A further assay concerns the target MST4 (human) (UniProt Q9P289). As to the kind of experiment: SelectScreen, TR FRET.
For another assay, the target named is NUAK1 (human) (UniProt O60285). As to the kind of experiment: SelectScreen, TR FRET.
In another assay the target is CDC42BPA (human) (UniProt Q5VT25). As to the kind of experiment: SelectScreen, TR FRET.
In another assay the target is EPHA8 (human) (UniProt P29322). As to the kind of experiment: SelectScreen, TR FRET.
In another assay the target is INSR (human) (UniProt P06213). As to the kind of experiment: SelectScreen, TR FRET.
The target of the next assay is GSK3A (human) (UniProt P49840). As to the kind of experiment: SelectScreen, TR FRET.
The next assay concerns the target DYRK1A (human) (UniProt Q13627). As to the kind of experiment: SelectScreen, TR FRET.
A further assay has as its target SPHK1 (human) (UniProt Q9NYA1). As to the kind of experiment: SelectScreen, TR FRET.
In another assay the target is MINK1 (human) (UniProt Q8N4C8). As to the kind of experiment: SelectScreen, TR FRET.
The next assay concerns the target DAPK1 (human) (UniProt P53355). As to the kind of experiment: SelectScreen, TR FRET.
Assay [2] addresses PRKAA2 PRKAB1 PRKAG1 (human) (UniProt Q9Y478+P54646+P54619). As to the kind of experiment: SelectScreen, TR FRET. As to conditions: compound 0.1 µM.
For the next assay, the target named is EPHA3 (human) (UniProt P29320). As to the kind of experiment: SelectScreen, TR FRET.
A further assay concerns the target MAPKAPK5 (human) (UniProt Q8IW41). As to the kind of experiment: SelectScreen, TR FRET.
For a further assay, the target named is PAK1 (human) (UniProt Q13153). As to the kind of experiment: SelectScreen, TR FRET.
In the next assay the target is NEK2 (human) (UniProt P51955). As to the kind of experiment: SelectScreen, TR FRET.
The next assay has as its target PRKACA (human) (UniProt P17612). As to the kind of experiment: SelectScreen, TR FRET.
For another assay, the target named is EPHB2 (human) (UniProt P29323). As to the kind of experiment: SelectScreen, TR FRET.
The next assay addresses MAP2K6 (human) (UniProt P52564). As to the kind of experiment: SelectScreen, TR FRET.
A further assay concerns the target PDPK1 (human) (UniProt O15530). As to the kind of experiment: SelectScreen, TR FRET.
The target of assay [3] is MET (human) (UniProt P08581). As to the kind of experiment: Caliper, Mobility shift assay off-chip.
The target in assay [4] is MET (human) (UniProt P08581). As to the kind of experiment: TR FRET.

Consider 5 compounds from the kinase profiling compilation of Christmann-Franck et al. (2016).

What is called inhibition is the change of the read-out against control, counted positive when it falls. The IC50 is the midpoint of a concentration-inhibition curve. A higher IC50 goes with lower potency.

As to `Cn1cc(-c2cnc3ccc4ccc(CS(=O)(=O)NC5CCCCC5)cc4c(=O)c3c2)cn1`, the inhibition was 8.4% on NTRK3 (human) (compound 0.01 µM); -0.4% on NTRK3 (human) (compound 0.1 µM); -5.5% at TXK (human) (compound 0.01 µM); 4.8% at TXK (human) (compound 0.1 µM); 0.9% at PRKCI (human) (compound 0.01 µM); 1% at PRKCI (human) (compound 0.1 µM). Besides, the inhibition was -2.6% at ITK (human) (compound 0.01 µM); 15.3% on ITK (human) (compound 0.1 µM); 10.4% on RET (human) (compound 0.01 µM); 12.1% at RET (human) (compound 0.1 µM); 14.9% in assay [1] (compound 0.01 µM); 1% in assay [1] (compound 0.1 µM).
Turning to `Cn1cc(-c2cnc3ccc4ccc(CC(=O)NCc5ccccn5)cc4c(=O)c3c2)cn1`, the inhibition at PRKCQ (human) (compound 0.1 µM) was 7.2%; on PRKCQ (human) (compound 1.0 µM), 7.1%; at PRKCQ (human) (compound 10.0 µM), 7.7%; on BRAF (human) (compound 0.1 µM) it was 12.3%; at BRAF (human) (compound 1.0 µM) it was 13.5%; against BRAF (human) (compound 10.0 µM) it was -0.3%. In addition, the inhibition was 25.7% against MAP2K1 (human) (compound 0.1 µM); 23.8% at MAP2K1 (human) (compound 1.0 µM); 13.5% against MAP2K1 (human) (compound 10.0 µM); 6.9% on MST4 (human) (compound 0.1 µM); 2.2% against MST4 (human) (compound 1.0 µM); -39.8% against MST4 (human) (compound 10.0 µM). In addition, the inhibition on NUAK1 (human) (compound 0.1 µM) was -10.5%; at NUAK1 (human) (compound 1.0 µM), 13.6%; against NUAK1 (human) (compound 10.0 µM), 63.9%; on CDC42BPA (human) (compound 0.1 µM), 6.3%; against CDC42BPA (human) (compound 1.0 µM), 8.7%; against CDC42BPA (human) (compound 10.0 µM), 8.6%. The inhibition came out at 5.4% against EPHA8 (human) (compound 0.1 µM); 6.4% at EPHA8 (human) (compound 1.0 µM); 24.3% at EPHA8 (human) (compound 10.0 µM); 9.9% against INSR (human) (compound 0.1 µM); 7.3% on INSR (human) (compound 1.0 µM); 0.6% against INSR (human) (compound 10.0 µM). Further, the inhibition worked out at 8.6% at GSK3A (human) (compound 0.1 µM); 12.5% against GSK3A (human) (compound 1.0 µM); 65.6% against GSK3A (human) (compound 10.0 µM); 10.7% against DYRK1A (human) (compound 0.1 µM); 33.3% against DYRK1A (human) (compound 1.0 µM); 79% on DYRK1A (human) (compound 10.0 µM). For the same compound, the inhibition against SPHK1 (human) (compound 0.1 µM) was -3.4%; at SPHK1 (human) (compound 1.0 µM) it was -4.1%; on SPHK1 (human) (compound 10.0 µM) it was -2.1%; against MINK1 (human) (compound 0.1 µM), 19.9%; at MINK1 (human) (compound 1.0 µM), 29.2%; against MINK1 (human) (compound 10.0 µM), 71.1%. The inhibition against DAPK1 (human) (compound 0.1 µM) is 21.9%; at DAPK1 (human) (compound 1.0 µM) it was 2.1%; against DAPK1 (human) (compound 10.0 µM), 14.5%; in assay [2], 11.6%; against EPHA3 (human) (compound 0.1 µM), -1.7%; against EPHA3 (human) (compound 1.0 µM), 5.2%. Besides, the inhibition against EPHA3 (human) (compound 10.0 µM) is 16.4%; on MAPKAPK5 (human) (compound 0.1 µM) it was 5.2%; against MAPKAPK5 (human) (compound 1.0 µM), 6.7%; on MAPKAPK5 (human) (compound 10.0 µM), 7.9%; against PAK1 (human) (compound 0.1 µM), 19.6%; on PAK1 (human) (compound 1.0 µM) it was 18.5%. Also, the inhibition against PAK1 (human) (compound 10.0 µM) was -12.1%; against NEK2 (human) (compound 0.1 µM), 15.7%; against NEK2 (human) (compound 1.0 µM), 9.8%; against NEK2 (human) (compound 10.0 µM) it was -56.3%; against PRKACA (human) (compound 0.1 µM), 6.3%; at PRKACA (human) (compound 1.0 µM), 7.7%. Besides, the inhibition against PRKACA (human) (compound 10.0 µM) was 9.5%; at EPHB2 (human) (compound 0.1 µM), 8.6%; on EPHB2 (human) (compound 1.0 µM) it was 8%; against EPHB2 (human) (compound 10.0 µM) it was 3.5%; at MAP2K6 (human) (compound 0.1 µM), 9.7%; on MAP2K6 (human) (compound 1.0 µM), 9.1%. Moreover, the inhibition against MAP2K6 (human) (compound 10.0 µM) is 7.4%; against PDPK1 (human) (compound 0.1 µM) it was 3.3%; against PDPK1 (human) (compound 1.0 µM) it was 9.3%; at PDPK1 (human) (compound 10.0 µM), 25.4%.
Take `O=C(CCc1ccc2ccc3ncc(C4CCNCC4)cc3c(=O)c2c1)NCc1ccccn1`: the inhibition at MET (human) [3] (compound 0.1 µM) was 74.1%; on MET (human) [3] (compound 1.0 µM), 95.7%; on NTRK3 (human) (compound 0.1 µM), 6%; on NTRK3 (human) (compound 1.0 µM) it was 10.4%; at TXK (human) (compound 0.1 µM), -5.1%; at TXK (human) (compound 1.0 µM) it was -9.7%. Moreover, the inhibition at PRKCI (human) (compound 0.1 µM) is -0.6%; at PRKCI (human) (compound 1.0 µM), 1.4%; on ITK (human) (compound 0.1 µM) it was -5%; at ITK (human) (compound 1.0 µM) it was -1.8%; on RET (human) (compound 0.1 µM) it was 1.9%; on RET (human) (compound 1.0 µM) it was 2.8%. Also, the inhibition in assay [1] (compound 0.1 µM) amounted to 1.1%; in [1] (compound 1.0 µM), 2.7%. The same compound came in with an IC50 at MET (human) [4] of 85 nM.
`O=c1c2cc(CS(=O)(=O)NCc3ccccn3)ccc2ccc2ncc(C3CCNCC3)cc12`: the inhibition at MET (human) [3] (compound 0.01 µM) was 94.7%; at MET (human) [3] (compound 0.1 µM), 99.3%. At MET (human) [4], this compound showed an IC50 of 1 nM.
For `CN(c1ccc2ccc3ncc(-c4cnn(C)c4)cc3c(=O)c2c1)S(=O)(=O)NCc1ccccn1`, the inhibition at NTRK3 (human) (compound 0.1 µM) is 39.3%; on NTRK3 (human) (compound 1.0 µM), 83.6%; on TXK (human) (compound 0.1 µM), 0.6%; at TXK (human) (compound 1.0 µM), 19%; on PRKCI (human) (compound 0.1 µM), 3.9%; at PRKCI (human) (compound 1.0 µM) it was -0.5%. Moreover, the inhibition came to 7% at ITK (human) (compound 0.1 µM); 34.9% on ITK (human) (compound 1.0 µM); 7.4% on RET (human) (compound 0.1 µM); 44.1% on RET (human) (compound 1.0 µM); 10.2% in assay [1] (compound 0.1 µM); 43.4% in [1] (compound 1.0 µM).
